Reference: US8293775B2, “Benzoxazolone derivatives, processes for preparing them and their uses” (UCB Pharma, S.A., priority 2004, dated 2012)

Tested on: 6-OHDA rat model
Experiment: Hemi-parkinsonian (6-OHDA lesioned) rat model: prolongation of L-DOPA-induced contralateral rotations
Settings: second hour post administration (61-120 min); L-DOPA 50 mg/kg i.p. with vehicle (DMSO, i.p.); male Sprague-Dawley rats

For `N[C@@H](Cc1ccc(O)c(O)c1)C(=O)O` [L-Dopa, L-3,4-dihydroxyphenylalanine], the “total number of rotations observed with L-Dopa alone” value was “less than 50 turns”.
